A word on the IC50: it is the concentration that inhibits the measured activity by half.

The first test has as its system HBsAg secretion in HepG2.2.15 cells. In words: HBsAg assay (chemiluminescence immunoassay of secreted HBsAg in culture supernatant). The test is classed as cell-based, HBV. The note with it: HepG2.2.15 cells; concentration at which HBsAg secretion was reduced by 50% compared to the no drug control; read-out: IC50 (HBsAg assay). The method, boiled down:
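HepG2.2.15 cells (1.5×10^4/well, duplicate) treated with three-fold compound dilutions, 1% DMSO final, DMSO as no-drug control. Secreted HBsAg in supernatant quantified semi-quantitatively by chemiluminescence immunoassay; IC50 is concentration reducing HBsAg 50% versus no-drug control.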
For `CC1c2cnc(-c3ncccn3)nc2CCN1c1cc(F)cc(N(C)C)n1` (single isomer, unassigned; (-)) [Example 205, (−)-4-fluoro-N,N-dimethyl-6-[5-methyl-2-pyrimidin-2-yl-7,8-dihydro-5H-pyrido[4,3-d]pyrimidin-6-yl]pyridin-2-amine], the IC50 is 5 nM. In the case of `CC1c2cnc(-c3ncccn3)nc2CCN1c1cc(F)c(F)c(OCCCS(C)(=O)=O)c1` (single isomer, unassigned; (-)) [Example 49, (−)-6-[3,4-difluoro-5-(3-methylsulfonylpropoxy)phenyl]-5-methyl-2-pyrimidin-2-yl-7,8-dihydro-5H-pyrido[4,3-d]pyrimidine], the IC50 is 34 nM. Turning to `CCCC1c2cnc(-c3ccccn3)nc2CCN1c1cc(F)c(F)c(OC)c1` (single isomer, unassigned; (-)) [Example 14, (−)-6-(3,4-difluoro-5-methoxy-phenyl)-5-propyl-2-(2-pyridyl)-7,8-dihydro-5H-pyrido[4,3-d]pyrimidine], the half-maximal inhibitory concentration (IC50) stood at 2970 nM. For `CC1c2cnc(-c3ncccn3)nc2CCN1c1cc(F)c(F)c(OCCCCCCN)c1` (single isomer, unassigned; (-)) [Example 60, (−)-6-[2,3-difluoro-5-(5-methyl-2-pyrimidin-2-yl-7,8-dihydro-5H-pyrido[4,3-d]pyrimidin-6-yl)phenoxy]hexan-1-amine], the IC50 came to 22 nM. In the case of `CCCC1c2cnc(-c3ccccn3)nc2CCN1c1cc(F)c(F)c(OC)c1` (single isomer, unassigned; (+)) [Example 13, (+)-6-(3,4-difluoro-5-methoxy-phenyl)-5-propyl-2-(2-pyridyl)-7,8-dihydro-5H-pyrido[4,3-d]pyrimidine], the IC50 was 14400 nM. `CC1c2cnc(-c3ncccn3)nc2CCN1c1cc(F)c(F)c(OCC2CCCO2)c1` (stereo not shown) [Example 122, 6-[3,4-difluoro-5-(tetrahydrofuran-2-ylmethoxy)phenyl]-(5R/S)-methyl-2-pyrimidin-2-yl-7,8-dihydro-5H-pyrido[4,3-d]pyrimidine]: the IC50 was determined as 16 nM. Turning to `CCC1c2cnc(-c3ccccn3)nc2CCN1c1cc(F)c(F)c(OC)c1` (stereo not shown) [Example 9, 6-(3,4-difluoro-5-methoxy-phenyl)-5-ethyl-2-(2-pyridyl)-7,8-dihydro-5H-pyrido[4,3-d]pyrimidine], the half-maximal inhibitory concentration (IC50) stood at 183 nM. Same read-out and setting: the figure for `COc1cc(F)cc(N2CCc3nc(-c4ncccn4)ncc3C2C)c1` (single isomer, unassigned; (+)) [Example 74, (+)-6-(3-fluoro-5-methoxy-phenyl)-5-methyl-2-pyrimidin-2-yl-7,8-dihydro-5H-pyrido[4,3-d]pyrimidine] is 2250 nM. On to `COc1cc(F)nc(N2CCc3nc(-c4ncccn4)ncc3C2C)c1` (stereo not shown) [Example 127, 6-(6-Fluoro-4-methoxy-2-pyridyl)-5-methyl-2-pyrimidin-2-yl-7,8-dihydro-5H-pyrido[4,3-d]pyrimidine], for which the IC50 turned out to be 24 nM.

The test is the same for the next values; noted with them: Hepatitis B virus, HepG2.2.15, HepG2.2.15 cells; concentration at which HBsAg secretion was reduced by 50% compared to the no drug control; read-out: IC50 (HBsAg assay).
As to `COc1cc(F)nc(N2CCc3nc(-c4ncccn4)ncc3C2C)c1Cl` (single isomer, unassigned; (-)) [Example 147, (−)-6-(3-chloro-6-fluoro-4-methoxy-2-pyridyl)-5-methyl-2-pyrimidin-2-yl-7,8-dihydro-5H-pyrido[4,3-d]pyrimidine], the IC50 was determined as 21 nM. In the case of `CC1c2cnc(-c3ncccn3)nc2CCN1c1cc(OCCCC(N)=O)cc(F)n1` (single isomer, unassigned; (-)) [Example 185, (−)-4-[[2-fluoro-6-[5-methyl-2-pyrimidin-2-yl-7,8-dihydro-5H-pyrido[4,3-d]pyrimidin-6-yl]-4-pyridyl]oxy]butanamide], the IC50 amounted to 14 nM. As for `CC1c2cnc(-c3ccccn3)nc2CCN1c1cc(OCC2CCOCC2)cc(F)n1` (stereo not shown) [Example 190, 6-[6-fluoro-4-(tetrahydropyran-4-ylmethoxy)-2-pyridyl]-5-methyl-2-(2-pyridyl)-7,8-dihydro-5H-pyrido[4,3-d]pyrimidine], the IC50 stood at 24 nM.

For `CC1c2cnc(-c3ncccn3)nc2CCN1c1cc(F)cc(OC2CCOCC2)n1` (stereo not shown) [Example 173, 6-(4-fluoro-6-tetrahydropyran-4-yloxy-2-pyridyl)-5-methyl-2-pyrimidin-2-yl-7,8-dihydro-5H-pyrido[4,3-d]pyrimidine], the IC50 came out at 132 nM. Same read-out and setting: the value for `CC1c2cnc(-c3ncccn3)nc2CCN1c1cc(F)c(F)c(OCCCCCCNC(=O)OC(C)(C)C)c1` (stereo not shown) [Example 58, tert-butyl N-[6-[2,3-difluoro-5-(5-methyl-2-pyrimidin-2-yl-7,8-dihydro-5H-pyrido[4,3-d]pyrimidin-6-yl)phenoxy]hexyl]carbamate] was 193 nM; that for `CC1c2cnc(-c3ncccn3)nc2CCN1c1cc(F)c(F)c(OCCC2CN(S(C)(=O)=O)C2)c1` (stereo not shown) [Example 118, 6-[3,4-difluoro-5-[2-(1-methylsulfonylazetidin-3-yl)ethoxy]phenyl]-5-methyl-2-pyrimidin-2-yl-7,8-dihydro-5H-pyrido[4,3-d]pyrimidine] was 13 nM; that for `CC1c2cnc(-c3ncccn3)nc2CCN1c1cc(F)cc(N2CCNCC2)n1` (stereo not shown) [Example 209, 6-(4-fluoro-6-piperazin-1-yl-2-pyridyl)-5-methyl-2-pyrimidin-2-yl-7,8-dihydro-5H-pyrido[4,3-d]pyrimidine] was 649 nM.

On to `CC1c2cnc(-c3ncccn3)nc2CCN1c1cc(F)c(F)c(OC(F)F)c1` (stereo not shown) [Example 71, 6-[3-(difluoromethoxy)-4,5-difluoro-phenyl]-5-methyl-2-pyrimidin-2-yl-7,8-dihydro-5H-pyrido[4,3-d]pyrimidine], for which the IC50 was 68 nM. Consider `CC1c2cnc(-c3ncccn3)nc2CCN1c1cc(F)c(F)c(OCCCCCCCCN)c1` (stereo not shown) [Example 55, 8-[2,3-difluoro-5-(5-methyl-2-pyrimidin-2-yl-7,8-dihydro-5H-pyrido[4,3-d]pyrimidin-6-yl)phenoxy]octan-1-amine], for which the IC50 worked out at 113 nM. On to `CC1c2cnc(-c3ncccn3)nc2CCN1c1cc(F)c(F)c(OCCCN2CCOCC2=O)c1` (stereo not shown) [Example 80], for which the IC50 worked out at 71 nM. Still for that read-out and setting: the value for `CC1c2cnc(-c3ncccn3)nc2CCN1c1cc(F)c(F)c(OCCCN2CCCC2=O)c1` (stereo not shown) [Example 96, 1-[3-[2,3-difluoro-5-(5-methyl-2-pyrimidin-2-yl-7,8-dihydro-5H-pyrido[4,3-d]pyrimidin-6-yl)phenoxy]propyl]pyrrolidin-2-one] was 94 nM; that for `CC1c2cnc(-c3ncccn3)nc2CCN1c1cc(F)c(F)c(OCCCN)c1` (stereo not shown) [Example 91, 3-[2,3-difluoro-5-(5-methyl-2-pyrimidin-2-yl-7,8-dihydro-5H-pyrido[4,3-d]pyrimidin-6-yl)phenoxy]propan-1-amine] was 483 nM.

For `CC1c2cnc(-c3ncccn3)nc2CCN1c1cc(OCC2CSC2)cc(F)n1` (stereo not shown) [Example 194, 6-[6-fluoro-4-(thietan-3-ylmethoxy)-2-pyridyl]-5-methyl-2-pyrimidin-2-yl-7,8-dihydro-5H-pyrido[4,3-d]pyrimidine], the IC50 turned out to be 43 nM. Consider `CC1c2cnc(-c3ncccn3)nc2CCN1c1cc(F)c(F)c(OCC(F)(F)F)c1` (stereo not shown) [Example 69, 6-[3,4-difluoro-5-(2,2,2-trifluoroethoxy)phenyl]-5-methyl-2-pyrimidin-2-yl-7,8-dihydro-5H-pyrido[4,3-d]pyrimidine], for which the IC50 stood at 33 nM. Consider `COCCS(=O)(=O)NCCCOc1cc(N2CCc3nc(-c4ncccn4)ncc3C2C)cc(F)c1F` (stereo not shown) [Example 94, N-[3-[2,3-difluoro-5-(5-methyl-2-pyrimidin-2-yl-7,8-dihydro-5H-pyrido[4,3-d]pyrimidin-6-yl)phenoxy]propyl]-2-methoxy-ethanesulfonamide], for which the IC50 was found to be 70 nM.

Consider `CC1c2cnc(-c3ccccn3)nc2CCN1c1cc(F)cc(N2CCOCC2)n1` (stereo not shown) [Example 221, 4-[4-fluoro-6-[5-methyl-2-(2-pyridyl)-7,8-dihydro-5H-pyrido[4,3-d]pyrimidin-6-yl]-2-pyridyl]morpholine], for which the IC50 amounted to 34 nM. For `CC1c2cnc(-c3ncccn3)nc2CCN1c1cc(F)c(F)c(OCC2(CO)CC2)c1` (stereo not shown) [Example 77, [1-[[2,3-difluoro-5-(5-methyl-2-pyrimidin-2-yl-7,8-dihydro-5H-pyrido[4,3-d]pyrimidin-6-yl)phenoxy]methyl]cyclopropyl]methanol], the IC50 was 105 nM. `COC(=O)COc1cc(N2CCc3nc(-c4ccccn4)ncc3C2C)cc(F)c1F` (stereo not shown) [Example 27, methyl 2-[2,3-difluoro-5-[5-methyl-2-(2-pyridyl)-7,8-dihydro-5H-pyrido[4,3-d]pyrimidin-6-yl]phenoxy]acetate]: the IC50 turned out to be 3430 nM. In the case of `CC1c2cnc(-c3ncccn3)nc2CCN1c1cc(F)c(F)c(OCC2CC2(F)F)c1` (stereo not shown) [Example 82], the IC50 was determined as 30 nM. As for `CC1c2cnc(-c3ccccn3)nc2CCN1c1cc(F)c(F)c(OCC(N)=O)c1` (stereo not shown) [Example 29, 2-[2,3-difluoro-5-[5-methyl-2-(2-pyridyl)-7,8-dihydro-5H-pyrido[4,3-d]pyrimidin-6-yl]phenoxy]acetamide], the IC50 was 50 nM. On to `CC1c2cnc(-c3ncccn3)nc2CCN1c1cc(F)c(F)c(OCCCC(N)=O)c1` (stereo not shown) [Example 52, 4-[2,3-difluoro-5-(5-methyl-2-pyrimidin-2-yl-7,8-dihydro-5H-pyrido[4,3-d]pyrimidin-6-yl)phenoxy]butanamide], for which the IC50 stood at 110 nM.

Still in this test, the particulars now being: Hepatitis B virus, HepG2.2.15, read-out: IC50 (HBsAg assay).
Take `CC1c2cnc(-c3ncccn3)nc2CCN1c1cc(OCCCCC(N)=O)cc(F)n1` (single isomer, unassigned; (-)) [Example 158, (−)-5-[[2-fluoro-6-[5-methyl-2-pyrimidin-2-yl-7,8-dihydro-5H-pyrido[4,3-d]pyrimidin-6-yl]-4-pyridyl]oxy]pentanamide]: the IC50 turned out to be 16 nM.
